Laboratory results: patent publication US20030203975A1, “Anti-cancer agents” (priority 1998, published 2003)
Where a name gives a salt, the structure may show the parent alone.

system: not given; assay: not given; conditions: not given

Molecule	melting point [°C]
CC(C)(C)OC(=O)NCC(=O)OCCCNc1ccc(O)c2c1C(=O)c1ccccc1C2=O	124
CC(C)(C)OC(=O)NCC(=O)OCCCNc1ccc(O)c2c1C(=O)c1c(O)cccc1C2=O	152
CC(C)C[C@H](NC(=O)OC(C)(C)C)C(=O)NCC(=O)OCCCNc1cccc2c1C(=O)c1ccccc1C2=O	86
C[C@H](NC(=O)OC(C)(C)C)C(=O)OCCCNc1cccc2c1C(=O)c1ccccc1C2=O	60
C[C@@H](NC(=O)OC(C)(C)C)C(=O)OCCCNc1cccc2c1C(=O)c1ccccc1C2=O	58
CC(C)(C)OC(=O)N[C@H](Cc1ccccc1)C(=O)OCCCNc1cccc2c1C(=O)c1ccccc1C2=O	168
CC(C)(C)OC(=O)N1CCC[C@H]1C(=O)OCCCNc1cccc2c1C(=O)c1ccccc1C2=O	121
CC(C)(C)OC(=O)N1CCC[C@@H]1C(=O)OCCCNc1cccc2c1C(=O)c1ccccc1C2=O	120
CC[C@H](NC(=O)OC(C)(C)C)C(=O)OCCCCNc1cccc2c1C(=O)c1ccccc1C2=O	58
C[C@@H](C(=O)OCCCCNc1cccc2c1C(=O)c1ccccc1C2=O)N(C)C(=O)OC(C)(C)C	62
NCC(=O)OCCCCNc1cccc2c1C(=O)c1ccccc1C2=O (as salt: trifluoroacetate) [Example 81, 1-[4-(glycyloxy)butylamino]anthracene-9,10-dione trifluoroacetate]	154
C[C@H](NC(=O)OC(C)(C)C)C(=O)OCCCCNc1cccc2c1C(=O)c1ccccc1C2=O [Example 42, 1-[4-(N-tertiarybutoxycarbonyl-L-alanyloxy)butylamino] anthracene-9,10-dione]	102
C[C@@H](NC(=O)OC(C)(C)C)C(=O)OCCCCNc1cccc2c1C(=O)c1ccccc1C2=O [Example 44, 1-[4-(N-tertiarybutoxycarbonyl-D-alanyloxy)butylamino] anthracene-9,10-dione]	100
CC(C)(C)OC(=O)NCC(=O)OCCNc1cccc2c1C(=O)c1ccccc1C2=O [Example 58, 1-[2-(N-tertiarybutoxycarbonylglycyloxy)ethylamino]anthracene-9,10-dione]	122
CC(C)(C)OC(=O)NCC(=O)OCCCCNc1cccc2c1C(=O)c1ccccc1C2=O [Example 80, 1-[4-(N-tertiarybutoxycarbonylglycyloxy)butylamino]anthracene-9,10-dione]	70

system: MAC 15A adenocarcinoma of the colon; assay: In vitro chemosensitivity against MAC 15A adenocarcinoma (MTT assay); format: cell-based; conditions: 96 hours continuous exposure
Procedure: In Vitro Activity Against MAC 15A Adenocarcinoma.
MAC 15A cells were grown in RPMI 1640 medium supplemented with 10% foetal calf serum containing a 1% antibiotic mixture under standard tissue culture conditions and were maintained at 37° C. in a humidified atmosphere of 5% CO2 in air. Cells were harvested from a stock culture in exponential growth phase and plated in 96-well flat-bottomed plates to achieve a final density of 2×10^3 cells per well. After 2 hours incubation medium was replaced with either fresh medium containing 0.5% DMSO (control) or medium containing test compound dissolved in DMSO at a concentrations from 10 mM to 1 nM. Chemosensitivity was assessed using MTT assay by the method of Plumb et al Cancer Research 49 (1989) 4435-4440.
Following 96 hours continuous exposure to drug at 37° C. cells were incubated with fresh drug-free medium immediately prior to addition of MTT solution (5 mg/ml). Medium and MTT were removed after 4 hours and 150 μl of DMSO was added. For each plate the absorbance of the resulting solution was measured at the analytical wavelength 550 nm for formazan product, using a Labsystem Mutiskan. IC50 values were obtained from growth curves of drug concentration against % survival and are expressed in μm.

Molecule	IC50 [µM]
N[C@@H](CCCNC(=O)OCc1ccccc1)C(=O)OCCCNc1cccc2c1C(=O)c1ccccc1C2=O [Example 71, 1-[3-(N-δ-benzyloxycarbonyl-L-ornithyloxy)propylaminol]anthracene-9,10-dione trifluoroacetate]	2.4
CC(C)(COC(=O)CN)Nc1cccc2c1C(=O)c1ccccc1C2=O [Example 97, 2-[(9,10-dioxoanthryl)amino]-2-methylpropyl 2-aminoacetate trifluoro-acetate]	15
C[C@H](N)C(=O)OCC(C)(C)Nc1cccc2c1C(=O)c1ccccc1C2=O [Example 99, 2-[(9,10-dioxoanthryl)amino]-2-methylpropyl (2S)-2-amino propanoate trifluoroacetate]	35
C[C@H](N)C(=O)OCCc1ccc(Nc2cccc3c2C(=O)c2ccccc2C3=O)cc1 [Example 103]	4.7
C[C@@H](N)C(=O)OCCc1ccc(Nc2cccc3c2C(=O)c2ccccc2C3=O)cc1 [Example 105]	3.4
NCC(=O)OCCN1CCN(c2cccc3c2C(=O)c2ccccc2C3=O)CC1 [Example 107, 2-[4-(9,10-dioxoanthryl)piperazinyl]ethyl 2-aminoacetate bis-trifluoroacetate]	24
C[C@H](N)C(=O)OC1CCN(c2cccc3c2C(=O)c2ccccc2C3=O)CC1 [Example 117, 1-(9,10-dioxoanthryl)-4-piperidyl-(2S)-2-aminopropanoate trifluoro-acetate]	14
C[C@H](N)C(=O)OC[C@@H]1CCCN1c1cccc2c1C(=O)c1ccccc1C2=O [Example 121, [(2S)-1-(9,10-dioxoanthryl)pyrrolidin-2-yl]methyl (2S)-2-amino-propanoate trifluoroacetate]	22
NCC(=O)N1CCC[C@H]1C(=O)OC[C@H](Cc1ccccc1)Nc1ccc(O)c2c1C(=O)c1c(O)cccc1C2=O [Example 135, (2S)-2-[(4,8-dihydroxy-9,10-dioxoanthryl)amino]-3-phenylpropyl (2S) -1-(2-aminoacetyl)pyrrolidine-2-carboxylate trifluoroacetate]	2.5
(2S)-2-[(9,10-dioxoanthryl)amino]propyl (2S)-2-propanoate trifluoroacetate [Example 119]	5.5

same assay, conditions: Mus musculus, MAC15A, 96 h, 96 hours continuous exposure

Molecule	IC50 [µM]
CC(C)[C@H](N)C(=O)OCCCNc1ccc(O)c2c1C(=O)c1ccccc1C2=O [Example 51, 4-hydroxy-1-[3-(L-valyloxy)propylamino]anthracene-9,10-dione tri-fluoroacetate]	4.9
COc1ccc(C[C@H](N)C(=O)OCCCNc2cccc3c2C(=O)c2ccccc2C3=O)cc1 [Example 79, 1-[3-(O-methyl-L-tyrosyloxy)propylamino]anthracene-9,10dione tri-fluoroacetate]	3.5
C[C@H](N)C(=O)OCCOCCNc1cccc2c1C(=O)c1ccccc1C2=O [Example 109, 1-[2-(2-{L-alanyloxy}ethoxy)ethylamino]anthracene-9,10-dione tri-fluoroacetate]	11.5
C[C@@H](N)C(=O)OCCOCCNc1cccc2c1C(=O)c1ccccc1C2=O [Example 111, 1-[2-(2-{D-alanyloxy}ethoxy)ethylamino]anthracene-9,10-dione tri-fluoroacetate]	24

same assay, conditions: Mus musculus, MAC15A, 96 hours continuous exposure

Molecule	IC50 [µM]
C[C@H](N)C(=O)OCCNc1cccc2c1C(=O)c1ccccc1C2=O [Example 23, 1-[2-(L-alanyloxy)ethylamino]anthracene-9,10-dione trifluoroacetate]	7.5
CC(C)[C@H](N)C(=O)OCCNc1cccc2c1C(=O)c1ccccc1C2=O [Example 25, 1-[2-(L-valyloxy)ethylamino]anthracene-9,10-dione trifluoroacetate]	30
CC(C)[C@@H](N)C(=O)OCCNc1cccc2c1C(=O)c1ccccc1C2=O [Example 27, 1-[2-(D-valyloxy)ethylamino]anthracene-9,10-dione trifluoroacetate]	14
N[C@@H](Cc1ccccc1)C(=O)OCCCNc1cccc2c1C(=O)c1ccccc1C2=O [Example 39, 1-[3-(L-phenylalanyloxy)propylamino]anthracene-9,10-dione trifluoro-acetate]	3
N[C@H](C(=O)OCCCNc1cccc2c1C(=O)c1ccccc1C2=O)c1ccccc1 [Example 73, 1-[3-(L-phenylglycyloxy)propylamino]anthracene-9,10dione trifluoro-acetate]	5
N[C@@H](C(=O)OCCCNc1cccc2c1C(=O)c1ccccc1C2=O)c1ccccc1 [Example 75, 1-[3-(D-phenylglycyloxy)propylamino]anthracene-9, 10dione trifluoro-acetate]	4.2
N[C@@H](Cc1c[nH]c2ccccc12)C(=O)OCCCCCONc1cccc2c1C(=O)c1ccccc1C2=O [Example 77, 1-[5-(L-tryptophyloxy)pentoxyamino]anthracene-9,10-dione trifluoro-acetate]	5.5
NCC(=O)OCCCCNc1cccc2c1C(=O)c1ccccc1C2=O [Example 81, 1-[4-(glycyloxy)butylamino]anthracene-9,10-dione trifluoroacetate]	9.4
CN[C@@H](C)C(=O)OCCCCNc1cccc2c1C(=O)c1ccccc1C2=O [Example 85, 1-[4-(methylalanyloxy)butylamino]anthracene-9,10-dione trifluoro-acetate]	3.2
CCCC(=O)OCCCCNc1cccc2c1C(=O)c1ccccc1C2=O [Example 89, 1-[4-(butanoyloxy)butylamino]anthracene-9,10-dione trifluoroacetate]	4.5
C[C@H](N)C(=O)OCCCCCNc1cccc2c1C(=O)c1ccccc1C2=O [Example 93, 1-[5-(L-alanyloxy)pentylamino]anthracene-9,10-dione trifluoroacetate]	3.5
C[C@@H](N)C(=O)OCCCCCNc1cccc2c1C(=O)c1ccccc1C2=O [Example 95, 1-[5-(D-alanyloxy)pentylamino]anthracene-9,10-dione trifluoroacetate]	3.1
N[C@@H](Cc1ccccc1)C(=O)OCCOCCNc1cccc2c1C(=O)c1ccccc1C2=O [Example 113, 1-[2-(2-{L-phenylalanyloxy}ethoxy)ethylamino]anthracene-9,10-dione trifluoroacetate]	7
N[C@H](Cc1ccccc1)C(=O)OCCOCCNc1cccc2c1C(=O)c1ccccc1C2=O [Example 115, 1-{2-(2-[D-phenylalanyloxy]ethoxy)ethylamino}anthracene-9,10-dione trifluoroacetate]	12
NCC(=O)NCC(=O)OCCCNc1cccc2c1C(=O)c1ccccc1C2=O [Example 129, 1-[3-(glycylglycyloxy)propylamino]anthracene-9,10-dione trifluoro-acetate]	4
